Results from US6835382B2, “Ii peptide therapeutics to enhance antigen presentation” (University of Massachusetts, priority 1996, dated 2004).
Non-standard residues stand in square brackets, D forms with d. Orn = NCCC[C@H](N)C(=O)O

Experiments:
[1] = target: T1, murine E^d MHC class II allele (Mus musculus, UniProt P01904+P01915); assay: simultaneous assay, E^d allele (A20 APC, G28.C9 T hybridoma, HEL106-116; HT-2 [3H]TdR readout); type: cell-based; parameters: The A20 and CH27 B cell lymphoma lines express H-2^d and H-2^k alleles, respectively; endogenous in cells; host or cells: A20 B cell lymphoma (mitomycin C-treated or paraformaldehyde-fixed); conditions: for activity in simultaneous assay on E^d and E^k, in words: Tables 12 and 18; for Times Baseline Response, Ed: Table 3
T1 sequence (P01904 26-255): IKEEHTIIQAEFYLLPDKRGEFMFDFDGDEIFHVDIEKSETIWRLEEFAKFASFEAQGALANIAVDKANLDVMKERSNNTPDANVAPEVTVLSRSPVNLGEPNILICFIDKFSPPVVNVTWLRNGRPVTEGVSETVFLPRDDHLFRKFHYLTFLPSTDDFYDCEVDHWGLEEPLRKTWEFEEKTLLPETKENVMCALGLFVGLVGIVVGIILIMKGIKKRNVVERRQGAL
T1 sequence (P01915 27-264 limits assumed): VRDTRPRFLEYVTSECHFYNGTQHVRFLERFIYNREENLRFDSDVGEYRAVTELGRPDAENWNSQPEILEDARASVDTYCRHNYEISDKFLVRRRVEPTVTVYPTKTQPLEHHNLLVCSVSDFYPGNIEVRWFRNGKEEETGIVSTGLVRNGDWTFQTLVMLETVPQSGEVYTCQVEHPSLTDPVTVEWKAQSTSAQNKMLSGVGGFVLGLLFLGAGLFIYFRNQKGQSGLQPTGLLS
Procedure: (§1) Examples 1-4 (Tables 1-18) will be briefly considered in order to establish the concept of tolerance discussed above. These examples describe experimental results observed in the so-called “simultaneous” assay. In the simultaneous assay four principle components are cultured together for a 24 hour period. The components of this culture, which are added simultaneously, are: (a) an antigenic peptide characterized by the ability to bind specifically into the antigenic peptide binding groove of an MHC class II molecule, (b) mitomycin C-treated, MHC class II-positive antigen presenting cells (APC) bearing the MHC class II allele required for binding of the specific antigenic peptide, and presentation of the specific antigenic peptide to the antigenic peptide-specific T cell hybridoma, (c) an effector compound of the present invention, and (d) an MHC class II allele-restricted T cell hybridoma specific for the antigenic peptide and the MHC class II allele restricting its presentation. Following incubation of this primary culture, an aliquot of its supernatant is transferred into a second culture well for incubation with an interleukin-dependent lymphoblastoid cell line. The degree of stimulation of that second, indicator cell by the interleukins which had been released from the activated T cell hybridoma in the primary culture is measured by quantitating tritiated thymidine deoxyribose {[^3H]TdR} uptake into the DNA of the HT-2 indicator cells of that second culture.
(§2) In the “simultaneous assay” the four components of the assay are cultured together for a 24 h period. The components of this primary culture, added at the same time or simultaneously, are: (a) the antigenic peptide, (b) mitomycin C-treated, MHC class II-positive antigen presenting cells (APC) with the MHC class II allele required for binding of the specific antigenic peptide and its presentation to the antigenic peptide-specific T cell hybridoma, (c) an AE101 series effector peptide, and (d) MHC class II allele-restricted T cell hybridoma specific for the antigenic peptide and the MHC class II allele restricting its presentation. At the end of the incubation of this primary culture, an aliquot of its supernatant is transferred into a second culture well for incubation with an interleukin-dependent lymphoblastoid cell line. The degree of stimulation of that second, indicator cell by the interleukins which had been released from the activated T cell hybridoma in the primary culture is measured by quantitating tritiated thymidine deoxyribose {[^3H]TdR} uptake into the DNA of the HT-2 indicator cells of that second culture.
(§3) For these various assays, the following antigenic peptides were used: HEL11-25, hen egg lysozyme 11-25, AMKRHGLDNYRGYSL(A^d) (SEQ ID NO:5); HEL46-61, hen egg lysozyme 46-61, NTDGSTDYGILQINSR(Ak) (SEQ ID NO:6); HEL106-116, hen egg lysozyme 106-116, NAWVAWRNRCK (E^d) (SEQ ID NO:7); PGCC81-104, pigeon cytochrome c 81-104, […] (Ek) (SEQ ID NO:8), and THMCC82-103, tobacco hornworm moth cytochrome c 82-103, […] (Ek) (SEQ ID NO:9). AE101 series peptides were obtained from commercial sources. In general, the purity and composition of each peptide was confirmed by HPLC separation and mass spectrometry. The native protein antigens were HEL, hen egg lysozyme, and PGCC, pigeon cytochrome C. They were obtained from commercial sources.
(§4) For the experiments of these Examples, several T cell hybridomas, which are specific for certain antigenic peptides, were used. The TPc9.1 T hybridoma is specific for pigeon cytochrome C 81-104 peptide presented on the murine class II MHC allele E^k. The TPc9.1 hybridoma responds heteroclitically to tobacco hornworm moth cytochrome c 82-103 on E^k. The 3A9 T hybridoma is specific for hen egg lysozyme 46-61 on A^k. The 9.30.B2 hybridoma is specific for hen egg lysozyme 11-25 on A^d, and the G28.C9 hybridoma is specific for hen egg lysozyme 106-116 on E^d. […]

[2] = system: murine E^k MHC class II allele; assay: simultaneous assay, E^k allele (CH27 APC, TPc9.1 T hybridoma, THMCC82-103 or PGCC81-104); type: cell-based; conditions: for Times Baseline Response, Ek: Table 3, values reduced relative to E^d by a factor of 10
Procedure: as §1, §2, §3, §4

[3] = Table 12, AE peptide 1 μM (fourth value), supernatant 1:2
[4] = Table 12, AE peptide 4 μM (third value), supernatant 1:2
[5] = Table 12, AE peptide 16 μM (second value), supernatant 1:2
[6] = Table 12, AE peptide 64 μM (first value), supernatant 1:2
[7] = Table 12, AE peptide 1 μM (fourth value), supernatant 1:4
[8] = Table 12, AE peptide 4 μM (third value), supernatant 1:4
[9] = Table 12, AE peptide 16 μM (second value), supernatant 1:4
[10] = Table 12, AE peptide 64 μM (first value), supernatant 1:4
[11] = Table 10, AE peptide 16 μM (second value), supernatant 1:2
[12] = Table 10, AE peptide 64 μM (first value), supernatant 1:2
[13] = Table 10, AE peptide 64 μM, supernatant 1:2 (first value)
[14] = Table 10, AE peptide 64 μM, supernatant 1:4 (second value)
[15] = AE peptide 64 μM, supernatant 1:4
[16] = Table 9, AE peptide 64 μM, supernatant 1:4
[17] = Table 9, AE peptide 64 μM, supernatant 1:4, normalized by a factor of 5
[18] = Table 6, AE peptide 64 μM, supernatant 1:4
[19] = Table 6, AE peptide 64 μM, supernatant 1:4, reduced by a factor of 5
[20] = Table 5, AE peptide 64 μM, supernatant 1:4
[21] = Table 5, AE peptide 64 μM, supernatant 1:4, normalized to E^d by a factor of 10

Ac-kplkmrl-NH2 [AE171]
Times Baseline Response, E^d [1, 3]: 1.4 | Times Baseline Response, E^d [1, 4]: 1.4 | Times Baseline Response, E^d [1, 5]: 1.5 | Times Baseline Response, E^d [1, 6]: 1.3 | activity in simultaneous assay on E^d and E^k, in words [1]: inactive | Times Baseline Response, E^k [2, 7]: 1.9 | Times Baseline Response, E^k [2, 8]: 1.4 | Times Baseline Response, E^k [2, 9]: 2.0 | Times Baseline Response, E^k [2, 10]: 3.6

Ac-YRMKAPKSAK-NH2 [AE124]
Times Baseline Response, E^d [1, 11]: 7.3 | Times Baseline Response, E^d [1, 12]: 12.5 | Times Baseline Response, E^k [2, 13]: 66.0 | Times Baseline Response, E^k [2, 14]: 65.9

Ac-H RMKLPK-NH2 [AE183]
Times Baseline Response, Ed [1, 15]: 10.3 | Times Baseline Response, Ek [2, 15]: 17.3

Ac-LRMKLP H-NH2 [AE243]
Times Baseline Response, E^d [1, 16]: 7.2 | Times Baseline Response, E^k [2, 17]: 14.5

Ac-LRMKLP Y-NH2 [AE249]
Times Baseline Response, E^d [1, 16]: 12.2 | Times Baseline Response, E^k [2, 17]: 17.1

Ac-LRM Q LPK-NH2 [AE217]
Times Baseline Response, E^d [1, 18]: 4.0 | Times Baseline Response, E^k [2, 19]: 4.4

Ac-LR D KLPK-NH2 [AE200]
Times Baseline Response, E^d [1, 20]: 8.3 | Times Baseline Response, E^k [2, 21]: 3.9

Ac-LR E KLPK-NH2 [AE201]
Times Baseline Response, E^d [1, 20]: 7.0 | Times Baseline Response, E^k [2, 21]: 3.4

Ac-[Orn]RMKLPK-NH2 [AE180]
Times Baseline Response, Ed [1, 15]: 12.6 | Times Baseline Response, Ek [2, 15]: 10.8

Ac-LR H KLPK-NH2 [AE198]
Times Baseline Response, E^d [1, 20]: 16.1 | Times Baseline Response, E^k [2, 21]: 18.7

Ac-LRMKLP Q-NH2 [AE247]
Times Baseline Response, E^d [1, 16]: 4.5 | Times Baseline Response, E^k [2, 17]: 10.9

Ac-LRMKLP L-NH2 [AE251]
Times Baseline Response, E^d [1, 16]: 11.9 | Times Baseline Response, E^k [2, 17]: 18.6

Ac-LRM H LPK-NH2 [AE213]
Times Baseline Response, E^d [1, 18]: 6.1 | Times Baseline Response, E^k [2, 19]: 5.7

Ac-lrmklpk-NH2 [AE170]
Times Baseline Response, E^d [1, 3]: 1.3 | Times Baseline Response, E^d [1, 4]: 1.3 | Times Baseline Response, E^d [1, 5]: 1.2 | Times Baseline Response, E^d [1, 6]: 1.1 | activity in simultaneous assay on E^d and E^k, in words [1]: inactive | Times Baseline Response, E^k [2, 7]: 1.7 | Times Baseline Response, E^k [2, 8]: 2.1 | Times Baseline Response, E^k [2, 9]: 2.4 | Times Baseline Response, E^k [2, 10]: 2.8

Ac-LRM D LPK-NH2 [AE214]
Times Baseline Response, E^d [1, 18]: 0.8 | Times Baseline Response, E^k [2, 19]: 0.4

Ac-YRMKLAKSAK-NH2 [AE125]
Times Baseline Response, E^d [1, 11]: 1.7 | Times Baseline Response, E^d [1, 12]: 2.0 | Times Baseline Response, E^k [2, 13]: 38.7 | Times Baseline Response, E^k [2, 14]: 32.8

Ac-LRMKLP HArg-NH2 [AE242]
Times Baseline Response, E^d [1, 16]: 8.0 | Times Baseline Response, E^k [2, 17]: 17.6

Ac-LRM Y LPK-NH2 [AE219]
Times Baseline Response, E^d [1, 18]: 7.1 | Times Baseline Response, E^k [2, 19]: 8.8

Ac-Q RMKLPK-NH2 [AE188]
Times Baseline Response, Ed [1, 15]: 8.8 | Times Baseline Response, Ek [2, 15]: 7.7

Ac-HArg RMKLPK-NH2 [AE182]
Times Baseline Response, Ed [1, 15]: 18.8 | Times Baseline Response, Ek [2, 15]: 26.5

Ac-K RMKLPK-NH2 [AE184]
Times Baseline Response, Ed [1, 15]: 14.1 | Times Baseline Response, Ek [2, 15]: 11.8
